Laboratory results as given in US5972951A, “Tetracyclic spiro compounds, process for their preparation and their use as 5HT1D receptor antagonists” (SmithKline Beecham plc, priority 1994, dated 1999).

The molecules below were run against T1, 5-HT 1D beta receptors (Homo sapiens, UniProt P28222) (assay: 5-HT 1D beta binding ([3H]-5-HT displacement, homogenised CHO cells)). Settings: not given.
T1 construct: expressed in transfected cells; host or cells: CHO cells
Protocol: 5-HT 1D ALPHA AND 5-HT 1D BETA BINDING.
CHO cells expressing 5-HT 1D beta receptors (4×10^7 cells/ml) are homogenised in Tris buffer and stored in 1.5 ml aliquots.
0.4 ml of a cell suspension was incubated with [^3 H]-5-HT (4 nM) in Tris Mg HCl buffer (pH 7.7) and test drug, at 37° C. for 45 minutes. Each test drug was tested at 10 concentrations (0.01 mM to 0.3 nM final concentration), with non-specific binding defined using 0.01 mM 5-HT. The total assay volume was 0.5 ml. Incubation was stopped by rapid filtration using a Packard Filtermate (filters pre-soaked in 0.3% polyethylenimine) and radioactivity measured by Topcount scintillation counting. The pKi values were calculated from the IC50 generally by an iterative leas squares curve fitting programme.

T1 sequence (P28222 whole entry): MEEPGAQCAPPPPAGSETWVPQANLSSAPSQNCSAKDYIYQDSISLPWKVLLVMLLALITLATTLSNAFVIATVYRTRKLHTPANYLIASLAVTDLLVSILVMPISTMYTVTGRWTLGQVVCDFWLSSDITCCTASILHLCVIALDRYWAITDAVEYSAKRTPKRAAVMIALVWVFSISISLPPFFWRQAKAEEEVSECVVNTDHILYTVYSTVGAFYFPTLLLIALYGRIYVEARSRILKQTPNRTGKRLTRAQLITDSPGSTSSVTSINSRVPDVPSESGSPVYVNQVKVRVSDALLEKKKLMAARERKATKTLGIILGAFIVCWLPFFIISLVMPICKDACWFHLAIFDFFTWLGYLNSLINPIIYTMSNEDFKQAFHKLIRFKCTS

SMILES	Ki
CCN1CCC2(CC1)COc1cc3c(cc12)N(C(=O)c1ccc(-c2ccc(-c4nnc(C)o4)cc2C)cc1)CC3 [Example 26, 1'-Ethyl-5-[2'-methyl-4'-(5-methyl-1,3,4-oxadiazol-2-yl)biphenyl-4-carbonyl]-2,3,6,7-tetrahydrospiro[furo[2,3-f]indole-3,4'-piperidine]]	< 10 nM

Same assay, conditions: CHO cells expressing 5-HT 1D beta receptors; [3H]-5-HT (4 nM); 37° C. for 45 minutes; pKi calculated from the IC50; read-out: pKi values at 5-HT 1D beta receptors (converted)

SMILES	Ki
CCN1CCC2(CC1)COc1cc3c(cc12)N(C(=O)c1ccc(-c2ccc(-c4noc(C)n4)cc2C)cc1)CC3 [Example 4, 1'-Ethyl-5-(2'-methyl-4'-(5-methyl-1,2,4-oxadiazol-3-yl)biphenyl-4-carbonyl)-2,3,6,7-tetrahydrospiro[furo[2,3-f]indole-3,4'-piperidine]]	< 10 nM
Cc1nnc(-c2ccc(-c3ccc(C(=O)N4CCc5cc6c(cc54)C4(CCN(C)CC4)CO6)cc3)c(C)c2)o1 [Example 5, 1'-Methyl-5-(2'-methyl-4'-(5-methyl-1,3,4-oxadiazol-2-yl)biphenyl-4-carbonyl)-2,3,6,7-tetrahydrospiro[furo[2,3-f]indole-3,4'-piperidine]]	< 10 nM
Cc1cc(-c2noc(N(C)C)n2)ccc1-c1ccc(C(=O)N2CCc3cc4c(cc32)C2(CCN(C)CC2)CO4)cc1 [Example 6, 5-(4'-(5-Dimethylamino-1,2,4-oxadiazol-3-yl)-2'-methylbiphenyl-4-carbonyl)-1'-methyl-2,3,6,7-tetrahydrospiro[furo[2,3-f]indole-3,4'-piperidine]]	< 10 nM
Cc1nc(-c2ccc(-c3ccc(C(=O)n4ccc5cc6c(cc54)C4(CCN(C)CC4)CO6)cc3)c(C)c2)no1 [Example 8, 2,3-Dihydro-1'-methyl-5-(2'-methyl-4'-(5-methyl-1,2,4-oxadiazol-3-yl)biphenyl-4-carbonyl)spiro[furo[2,3-f]indole-3,4'-piperidine)]	< 10 nM
Cc1nnc(-c2ccc(-c3ccc(C(=O)n4ccc5cc6c(cc54)C4(CCN(C)CC4)CO6)cc3)c(C)c2)o1 [Example 18, 2,3-Dihydro-1'-methyl-5-(2'-methyl-4'-(5-methyl-1,3,4-oxadiazol-2-yl)biphenyl-4-carbonyl)spiro[furo[2,3-f]indole-3,4'-piperidine]]	< 10 nM
COC(=O)c1ccc(C)c(-c2ccc(C(=O)N3CCc4cc5c(cc43)C3(CCN(C)CC3)CO5)cc2)c1 [Example 23, 5-(5'-Methoxycarbonyl-2'-methylbiphenyl-4-carbonyl)-1'-methyl-2,3,6,7-tetrahydrospiro[furo[2,3-f]indole-3,4'-piperidine]]	< 10 nM
Cc1nnc(-c2ccc(-c3ccc(C(=O)N4CCc5cc6c(cc54)C4(CCO6)CCN(C)CC4)cc3)c(C)c2)o1 [Example 40, 1'-Methyl-6-[2°-methyl-4'-(5-methyl-1,3,4-oxadiazol-2-yl)biphenyl-4-carbonyl]-2,3,7,8-tetrahydrospiro[4H-pyrano[2,3-f]indole-4,4'-piperidine]]	< 10 nM
Cc1cc(-c2ccc(-c3ccc(C(=O)N4CCc5cc6c(cc54)C4(CCN(C)CC4)CO6)cc3)c(C)c2)no1 [Example 45, 1'-Methyl-5-(2'-methyl-4'-(5-methylisoxazol-3-yl)biphenyl-4-carbonyl)-2,3,6,7-tetrahydrospiro[furo[2,3-f]indole-3,4'-piperidine]]	< 10 nM
Cc1cc(-c2cnccn2)ccc1-c1ccc(C(=O)N2CCc3cc4c(cc32)C2(CCN(C)CC2)CO4)cc1 [Example 51, 1'-Methyl-5-(2'-methyl-4'-pyrazinylbiphenyl-4-carbonyl)-2,3,6,7-tetrahydrospiro[furo[2,3-f]indole-3,4'-piperidine]]	< 10 nM
Cc1cc(-c2cncn2C)ccc1-c1ccc(C(=O)N2CCc3cc4c(cc32)C2(CCN(C)CC2)CO4)cc1 [Example 54, 1'-Methyl-5-[2'-methyl-4'-(1-methylimidazol-5-yl)biphenyl-4-carbonyl]-2,3,6,7-tetrahydrospiro[furo[2,3-f]indole-3,4'-piperidine]]	< 10 nM
Cc1cc(-c2noc(CO)n2)ccc1-c1ccc(C(=O)N2CCc3cc4c(cc32)C2(CCN(C)CC2)CO4)cc1 [Example 55, 5-[4'-(5-Hydroxymethyl-1,2,4-oxadiazol-3-yl)-2'-methylbiphenyl-4-carbonyl]-1'-methyl-2,3,6,7-tetrahydrospiro[furo[2,3-f]indole-3,4'-piperidine]]	< 10 nM
Cc1cc(-c2nccnn2)ccc1-c1ccc(C(=O)N2CCc3cc4c(cc32)C2(CCN(C)CC2)CO4)cc1 [Example 57, 1'-Methyl-5-[2'-methyl-4'-(1,2,4-triazin-3-yl)biphenyl-4-carbonyl]-2,3,6,7-tetrahydrospiro[furo[2,3-f]indole-3,4'-piperidine]]	< 10 nM
CCOC(=O)Nc1ccc(-c2ccc(C(=O)N3CCc4cc5c(cc43)C3(CCN(CC)CC3)CO5)cc2)c(C)c1 [Example 66, 5-[4'-(Ethoxycarbonylamino)-2'-methylbiphenyl-4-carbonyl]-1'-ethyl-2,3,6,7-tetrahydrospiro[furo[2,3-f]indole-3,4'-piperidine]]	< 10 nM
